In US20060276393A1, “Novel compositions for preventing and treating neurodegenerative and blood coagulation disorders” (Sirtris Pharmaceuticals, Inc., priority 2005, published 2006):
Entries after “also recorded” stand apart in the source; their conditions may differ.

Key:
S. cerevisiae = test: Yeast replicative lifespan; format: cell-based; conditions: 10 μM; 2% (w/v) glucose YPD; untreated 100%
Protocol: Average lifespan for wild type, 22.9 generations, quercetin, 23.4; piceatannol. […]
All yeast strains were grown at 30° C. in complete yeast extract/bactopeptone, 2.0% (w/v) glucose (YPD) medium except where stated otherwise. Calorie restriction was induced in 0.5% glucose. Synthetic complete (SC) medium consisted of 1.67% yeast nitrogen base, 2% glucose, 40 mg/litre each of auxotrophic markers. SIR2 was integrated in extra copy and disrupted as described^5. Other strains are described elsewhere^26. For cellular deacetylation assays, HeLa S3 cells were used. U20S osteosarcoma and human embryonic kidney (HEK 293) cells were cultured adherently in Dulbecco's Modified Eagle's Medium (DMEM) containing 10% fetal calf serum (FCS) with 1.0% glutamine and 1.0% penecillin/streptomycin. HEK 293 overexpressing dominant negative SIRT1 H363Y was a gift of R. Frye (U. Pittsburgh).
Lifespan measurements were performed using PSY316AT MATα as previously described^35. All compounds for lifespan analyses were dissolved in 95% ethanol and plates were dried and used within 24 hours. Prior to lifespan analysis, cells were pre-incubated on their respective media for at least 15 hours. Following transfer to a new plate, cells were equilibrated on the medium for a minimum of 4 hours prior to micro-manipulating them. At least 30 cells were examined per experiment and each experiment was performed at least twice. Statistical significance of lifespan differences was determined using the Wilcoxon rank sum test. Differences are stated to be significant when the confidence is higher than 95%.

recombinant human SIRT1 = target: T1, recombinant human SIRT1 (Homo sapiens, UniProt Q96EB6); test: SIRT1 fluorescent deacetylation assay (p53-382 acetylated peptide); format: biochemical; conditions: 25 μM NAD+, 25 μM p53-382 acetylated peptide, compounds at 100 μM
T1 sequence (Q96EB6 1-747): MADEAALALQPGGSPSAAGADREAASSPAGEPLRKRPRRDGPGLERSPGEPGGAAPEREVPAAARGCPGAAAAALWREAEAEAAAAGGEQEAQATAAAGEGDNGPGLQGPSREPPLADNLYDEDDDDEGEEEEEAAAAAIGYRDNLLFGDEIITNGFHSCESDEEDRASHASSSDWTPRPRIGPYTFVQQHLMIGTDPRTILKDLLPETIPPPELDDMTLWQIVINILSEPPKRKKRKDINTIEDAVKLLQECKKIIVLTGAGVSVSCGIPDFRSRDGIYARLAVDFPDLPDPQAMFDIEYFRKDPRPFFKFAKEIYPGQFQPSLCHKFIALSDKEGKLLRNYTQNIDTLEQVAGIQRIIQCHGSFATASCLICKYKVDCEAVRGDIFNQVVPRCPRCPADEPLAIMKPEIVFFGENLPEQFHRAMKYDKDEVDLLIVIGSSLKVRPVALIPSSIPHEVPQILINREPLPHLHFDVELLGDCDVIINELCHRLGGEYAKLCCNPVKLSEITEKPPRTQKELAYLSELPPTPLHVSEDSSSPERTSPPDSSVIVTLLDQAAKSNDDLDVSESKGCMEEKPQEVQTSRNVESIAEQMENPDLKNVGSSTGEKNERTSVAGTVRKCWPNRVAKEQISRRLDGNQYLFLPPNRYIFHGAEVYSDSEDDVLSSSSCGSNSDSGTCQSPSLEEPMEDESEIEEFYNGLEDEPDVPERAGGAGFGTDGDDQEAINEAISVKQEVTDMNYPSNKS
Source text: Lines represent non-linear least-squares fits to the Michaelis-Menten equation. […] Lines represent non-linear least-squares fits to the Michaelis-Menten equation. […] Error bars are standard errors of the mean.
To identify compounds that modulate SIRT1 activity, a number of small molecule libraries were screened using a fluorescent deacetylation assay in 96-well plates^26. The substrate used in the assay was a fluorogenic peptide based on the sequence encompassing the p53-K382 acetylation site, a known target of SIRT1 in vivo^20,21,27. […] The small molecule libraries included analogues of nicotinamide, ε-acetyl lysine, NAD^+, nucleotides, nucleotide analogues and purinergic ligands.
His6-tagged recombinant SIRT1 and GST-tagged recombinant Sir2 were prepared as previously described^26. From 0.1 to 1 μg of SIRT1 and 1.5 μg of Sir2 were used per deacetylation assay (in 50 μl total reaction) as previously described^26.
Themed compound libraries (BIOMOL) were used for primary and secondary screening. Most polyphenol compounds were dissolved at 10 mM in dimethylsulfoxide (DMSO) on the day of the assay. For water soluble compounds and negative controls, 1% v/v DMSO was added to the assay. […] Unless otherwise indicated all initial rate measurements were means of three or more replicates, obtained with single incubation times, at which point 5% or less of the substrate initially present had been deacetylated. Calculation of net fluorescence increases included subtraction of a blank value, which in the case of Sir2 was obtained by omitting the enzyme from the reaction and in the case of SIRT1 by adding an inhibitor (200 μM suramin or 1 mM nicotinamide) to the reaction prior to the acetylated substrate. […] All error bars represent the standard error of the mean.

C. elegans = C. elegans lifespan; format: in vivo; conditions: N2 worms, E. coli as food; untreated 100%
Protocol: Thus, the presence of resveratrol in the growth media of C. elegans extends their lifespan.
Bristol N2 (Caenorhabditis Genetics Center) was used as the wild-type strain. The sir-2.1 mutant strain was generated by backcrossing VC199 (sir-2.1(ok434)) to N2 four times. Cultures were grown on standard NGM media and maintained on E. coli strain OP50. For the lifespan assays, synchronized animals were transferred to treatment plates as young adults (2 d after hatching, day 0 of assay), and were transferred to fresh treatment plates every 2 days for the first 6 to 8 days of the assay. […] For some lifespan trials, heat-killed OP50 were used as a food source. OP50 cultures were heated to 65° C. for 30 minutes, then pelleted and resuspended in 1/10 volume in S Basal supplemented with 10 mM MgSO4. In all assays, worms were monitored daily for mortality by gently probing with a platinum pick. Assays were performed at 24° C. To assay worm feeding rates, worms at the indicated stages were placed on treatment plates (no FUdR) for 4-5 hours, then videoed for 1 minute using a Pixelink PL-662 camera. The frame rate was slowed and the pumping rate of the pharynx was counted. To assay fecundity, gravid hermaphrodites (5 per plate, raised from synchronized L1s on normal or treatment plates) were allowed to lay eggs on their respective media for 5 hours, and the total number of eggs was counted.

[1] = Solution stability from SIRT1 fold-stimulation of aged stock solutions; format: physicochemical; conditions: ethanol stock 2.5 mM, room temperature, nitrogen atmosphere
Source text: The fold-stimulation (ratio to control) obtained with a compound diluted from an aged stock solution was compared to an identical dilution from a stock solution freshly prepared from the solid compound. “t1/2” is defined as the time required for the SIRT1 fold-stimulation of the compound from the aged solution to decay to one-half of that obtained from a freshly prepared solution. […] Stocks were aged by storage at room temperature, in glass vials, under a nitrogen atmosphere.

CC(=O)Oc1cc(O)cc(/C=C/c2ccc(O)cc2)c1 [BML-221, 3,4′-Dihydroxy-5-acetoxy-trans-stilbene]
% change in yeast replicative lifespan relative to untreated organisms (10 μM) (S. cerevisiae): 165%
SIRT1 stimulating activity (in words) (recombinant human SIRT1): diminished in in vitro SIRT1 activating ability
% change in C. elegans lifespan relative to untreated organisms (100/500 μM) (C. elegans): >100%
solution stability relative to resveratrol [1]: strongly increased; also recorded: vast improvement in solution stability relative to resveratrol
